{
  "source": "patent US8629149B2",
  "about": "“Oxopiperazine derivatives for the treatment of pain and epilepsy” (Zalicus Pharmaceuticals Ltd., priority 2009, dated 2014)",
  "key": {"[1]": {"test_system": "SNL L5/L6 rats", "assay": "L5/L6 spinal nerve ligation (SNL) Chung pain model, tactile allodynia (von Frey)", "type": "in vivo, rat", "excerpt": "The Spinal Nerve Ligation is an animal model representing peripheral nerve injury generating a neuropathic pain syndrome. In this model experimental animals develop the clinical symptoms of tactile allodynia and hyperalgesia. L5/L6 Spinal nerve ligation (SNL) injury was induced using the procedure of Kim and Chung (Kim et al., Pain 50:355-363 (1992)) in male Sprague-Dawley rats (Harlan; Indianapolis, Ind.) weighing 200 to 250 grams.\nAnaesthesia was induced with 2% isofluorane in O2 at 2 L/min and maintained with 0.5% isofluorane in O2. Rats were then shaved and aseptically prepared for surgeries. A 2 cm paraspinal incision was made at the level of L4-S2. L4/L5 was exposed by removing the transverse process above the nerves with a small rongeur. The L5 spinal nerve is the larger of the two visible nerves below the transverse process and lies closest to the spine. The L6 spinal nerve is located beneath the corner of the slope bone. A home-made glass Chung rod was used to hook L5 or L6 and a pre-made slip knot of 4.0 silk suture was placed on the tip of the rod just above the nerve and pulled underneath to allow for the tight ligation. The L5 and L6 spinal nerves were tightly ligated distal to the dorsal root ganglion. The incision was closed, and the animals were allowed to recover for 5 days.\nSham control rats underwent the same operation and handling as the experimental animals, but without SNL.\nPrior to initiating drug delivery, baseline behavioural testing data is obtained. At selected times after infusion of the Test or Control Article behavioural data can then be collected again.\nThe assessment of tactile allodynia consisted of measuring the withdrawal threshold of the paw ipsilateral to the site of nerve injury in response to probing with a series of calibrated von Frey filaments (innocuous stimuli). Animals were acclimated to the suspended wire-mesh cages for 30 min before testing. Each von Frey filament was applied perpendicularly to the plantar surface of the ligated paw of rats for 5 sec. A positive response was indicated by a sharp withdrawal of the paw. For rats, the first testing filament is 4.31. Measurements were taken before and after administration of test articles. […] The protocol was repeated until three changes in behaviour were determined (“up and down” method) (Chaplan et al., J. Neurosci. Methods 53:55-63 (1994)). The 50% paw withdrawal threshold was determined as (10^[Xf+kδ])/10,000, where Xf=the value of the last von Frey filament employed, k=Dixon value for the positive/negative pattern, and δ=the logarithmic difference between stimuli. The cut-off values for rats were no less than 0.2 g and no higher than 15 g (5.18 filament); for mice no less than 0.03 g and no higher than 2.34 g (4.56 filament). A significant drop of the paw withdrawal threshold compared to the pre-treatment baseline is considered tactile allodynia.\nRat SNL tactile allodynia were tested for Compounds 1-4 and 9-12 at 60 minutes compared to baseline and post-SNL. […] FIG. 1 is a plot of the antiallodynic effects of compound 4 (i.p.) tested in SNL L5/L6 rats using von Frey at three different doses, namely 3, 10 and 30 mpk, compared to vehicle alone. […] Rat SNL tactile allodynia were tested at 1, 2 and 4 hours after drug treatment (Table 6)."}, "[2]": {"target": "T1, Cav3.2 T-type Ca2+ channels expressed in HEK cells (Homo sapiens, UniProt O95180)", "T1 construct": "expressed in transfected cells; host or cells: HEK cells", "T1 sequence (O95180 whole entry)": "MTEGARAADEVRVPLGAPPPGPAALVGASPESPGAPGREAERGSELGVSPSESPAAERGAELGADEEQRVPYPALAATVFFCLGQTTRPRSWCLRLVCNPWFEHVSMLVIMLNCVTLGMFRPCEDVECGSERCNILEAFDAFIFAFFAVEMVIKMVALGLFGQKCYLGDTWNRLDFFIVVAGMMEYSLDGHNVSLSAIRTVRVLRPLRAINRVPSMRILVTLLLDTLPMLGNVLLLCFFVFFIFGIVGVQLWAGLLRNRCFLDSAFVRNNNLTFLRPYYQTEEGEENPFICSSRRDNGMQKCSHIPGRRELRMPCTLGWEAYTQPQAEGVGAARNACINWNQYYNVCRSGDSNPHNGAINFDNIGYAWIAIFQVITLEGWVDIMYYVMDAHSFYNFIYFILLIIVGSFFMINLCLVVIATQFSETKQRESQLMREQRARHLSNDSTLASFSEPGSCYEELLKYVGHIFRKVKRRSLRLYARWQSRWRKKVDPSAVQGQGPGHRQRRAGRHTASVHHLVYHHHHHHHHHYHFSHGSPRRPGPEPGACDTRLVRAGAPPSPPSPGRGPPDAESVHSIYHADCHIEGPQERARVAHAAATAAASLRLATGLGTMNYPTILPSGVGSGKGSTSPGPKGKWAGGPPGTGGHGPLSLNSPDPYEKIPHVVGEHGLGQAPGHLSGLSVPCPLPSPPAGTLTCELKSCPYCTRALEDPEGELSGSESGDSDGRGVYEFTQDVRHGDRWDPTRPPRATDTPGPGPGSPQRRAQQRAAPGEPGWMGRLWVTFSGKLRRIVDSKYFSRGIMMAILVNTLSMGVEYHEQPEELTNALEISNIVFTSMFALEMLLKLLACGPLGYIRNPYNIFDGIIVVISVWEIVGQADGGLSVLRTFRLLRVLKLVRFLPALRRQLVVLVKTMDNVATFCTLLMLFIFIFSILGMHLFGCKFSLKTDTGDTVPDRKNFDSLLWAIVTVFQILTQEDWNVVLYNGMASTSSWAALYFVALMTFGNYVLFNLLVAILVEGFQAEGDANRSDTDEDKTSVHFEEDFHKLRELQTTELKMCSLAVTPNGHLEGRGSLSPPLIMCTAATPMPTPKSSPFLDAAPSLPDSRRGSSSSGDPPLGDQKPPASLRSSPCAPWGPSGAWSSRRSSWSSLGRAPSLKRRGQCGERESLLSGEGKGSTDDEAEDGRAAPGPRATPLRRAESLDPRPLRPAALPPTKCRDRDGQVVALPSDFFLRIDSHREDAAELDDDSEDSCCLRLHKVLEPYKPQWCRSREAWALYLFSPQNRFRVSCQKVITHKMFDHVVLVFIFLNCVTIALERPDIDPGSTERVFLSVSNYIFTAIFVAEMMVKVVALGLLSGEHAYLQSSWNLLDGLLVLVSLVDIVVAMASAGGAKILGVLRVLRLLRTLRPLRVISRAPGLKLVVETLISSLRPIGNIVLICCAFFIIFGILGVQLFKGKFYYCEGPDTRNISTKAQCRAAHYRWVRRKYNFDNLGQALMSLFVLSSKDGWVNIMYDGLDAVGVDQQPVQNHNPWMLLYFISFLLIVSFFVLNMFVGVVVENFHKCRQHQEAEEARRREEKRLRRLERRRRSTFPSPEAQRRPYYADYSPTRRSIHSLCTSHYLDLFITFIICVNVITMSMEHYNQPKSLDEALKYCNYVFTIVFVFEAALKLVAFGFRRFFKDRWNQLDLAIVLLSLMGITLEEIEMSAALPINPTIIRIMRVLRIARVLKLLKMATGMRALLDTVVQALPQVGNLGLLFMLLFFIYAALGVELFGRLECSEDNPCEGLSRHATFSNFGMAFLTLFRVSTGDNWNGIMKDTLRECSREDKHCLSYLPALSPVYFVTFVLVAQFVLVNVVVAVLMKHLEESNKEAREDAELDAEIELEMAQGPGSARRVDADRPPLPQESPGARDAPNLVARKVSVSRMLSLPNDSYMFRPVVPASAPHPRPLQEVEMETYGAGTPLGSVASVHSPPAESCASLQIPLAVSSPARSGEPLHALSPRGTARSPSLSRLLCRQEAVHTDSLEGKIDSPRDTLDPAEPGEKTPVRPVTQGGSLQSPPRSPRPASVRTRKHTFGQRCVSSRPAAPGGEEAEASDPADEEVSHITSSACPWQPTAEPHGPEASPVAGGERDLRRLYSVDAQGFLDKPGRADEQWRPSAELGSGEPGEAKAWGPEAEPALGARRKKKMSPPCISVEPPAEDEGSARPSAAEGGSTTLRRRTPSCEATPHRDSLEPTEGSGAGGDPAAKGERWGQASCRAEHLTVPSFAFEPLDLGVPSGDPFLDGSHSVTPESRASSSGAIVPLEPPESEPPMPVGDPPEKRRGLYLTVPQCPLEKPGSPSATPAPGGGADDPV", "assay": "Cav3.2 voltage-clamp electrophysiological assay", "type": "cell-based", "settings": "Cav3.2 in HEK cells", "excerpt": "Prior to recording currents from Cav3.2 T-type Ca^2+ channels expressed in HEK cells, the culture media was replaced with extracellular solution (ECS) containing (in mM): 142 CsCl, 10 D-glucose, 2 CaCl2, 1 MgCl2, 10 HEPES, pH adjusted to 7.4 with CsOH. Borosilicate glass patch pipettes, pulled on a P-97 micropipette puller (Sutter Instruments, Novato, Calif.) with typical resistances of 2-4 MW, were backfilled with intracellular solution containing (in mM): 126.5 Cs-methanesulphonate, 2 MgCl2, 10 HEPES, 11 EGTA, 2 Na-ATP, pH adjusted to 7.3 CsOH. […] were recorded in the whole-cell configuration at room temperature (˜21° C.) using an Axopatch 200B (Molecular Devices, Sunnyvale, Calif.) patch-clamp amplifier. Recordings were low-pass filtered at 1 kHz (−3 dB 4-pole Bessel filter), digitized at 2 kHz with a Digidata 1322A interface (Molecular Devices), and acquired using pClamp 9.2 (Molecular Devices). No leak subtraction was used. Test compounds, prepared as 30 mM stock solutions in DMSO and diluted in extracellular buffer, were applied through a gravity driven multi-barrelled array of capillaries (24 gauge) connected to reservoirs controlled by solenoid valves. The effects of compounds on Cav3.2 slow and fast inactivation were evaluated using four different voltage protocols. The voltage dependence of fast and slow channel inactivation was examined using a two pulse protocol. Data were analyzed and fitted using OriginPro v.7.5 (OriginLab, Northampton, Mass.) software."}, "[3]": {"test_system": "male CF1 mice", "assay": "6 Hz psychomotor seizure model of partial epilepsy", "type": "in vivo, mouse", "design": "Epilepsy 6 Hz (% Protected): concentration or dose not given beside the values", "experimental": "Compounds were evaluated for the protection against seizures induced by a 6 Hz, 0.2 ms rectangular pulse width of 3 s duration, at a stimulus intensity of 32 mA (CC97) applied to the cornea of male CF1 mice (20-30 g) according to procedures described by Barton et al, “Pharmacological Characterization of the 6 Hz Psychomotor Seizure Model of Partial Epilepsy,” Epilepsy Res. 47(3):217-27 (2001). Seizures are characterised by the expression of one or more of the following behaviours: stun, forelimb clonus, twitching of the vibrissae and Straub-tail immediately following electrical stimulation."}, "[4]": {"settings": "voltage-dependence of half inactivation"}},
  "data": [
    {"smiles": "O=C1CN(C(=O)CC(c2ccc(Cl)cc2)c2ccc(Cl)cc2)CCN1", "note": "[Compound 3, 4-(3,3-bis(4-chlorophenyl)propanoyl)piperazin-2-one]", "values": [
      {"measurement": "Rat SNL Tactile Allodynia (% Antiallodynia)", "setting": "[1]; 1 hour after drug treatment", "result": 51, "unit": "%"},
      {"measurement": "Rat SNL Tactile Allodynia (% Antiallodynia)", "setting": "[1]; 2 hours after drug treatment", "result": 49, "unit": "%"},
      {"measurement": "Rat SNL Tactile Allodynia (% Antiallodynia)", "setting": "[1]; 4 hours after drug treatment", "result": 30, "unit": "%"},
      {"measurement": "τ recovery from fast inactivation (ms)", "setting": "[2]", "result": "*512 ms"},
      {"measurement": "τ recovery from slow inactivation (ms)", "setting": "[2]", "result": "*903 ms"},
      {"measurement": "Fraction of current recovered at 5.1 s interval", "setting": "[2]", "result": 0.91},
      {"measurement": "Fraction current remaining at −40 mV", "setting": "[2]; at −40 mV", "result": "*0.40"},
      {"measurement": "V1/2 fast inactivation (mV)", "setting": "[2]; [4]", "result": "−64", "unit": "mV"},
      {"measurement": "V1/2 slow inactivation (mV)", "setting": "[2]; [4]", "result": "−78", "unit": "mV"},
      {"measurement": "Epilepsy 6 Hz (% Protected)", "setting": "[3]; 0.25 hour", "result": 0, "unit": "%"},
      {"measurement": "Epilepsy 6 Hz (% Protected)", "setting": "[3]; 0.5 hour", "result": 0, "unit": "%"},
      {"measurement": "Epilepsy 6 Hz (% Protected)", "setting": "[3]; 1 hour", "result": 0, "unit": "%"},
      {"measurement": "Epilepsy 6 Hz (% Protected)", "setting": "[3]; 2 hours", "result": 0, "unit": "%"},
      {"measurement": "Epilepsy 6 Hz (% Protected)", "setting": "[3]; 4 hours", "result": 0, "unit": "%"}
    ]},
    {"smiles": "O=C1CN(C(=O)CC(c2ccccc2)c2ccccc2)CCN1", "note": "[Compound 4, 4-(3,3-diphenylpropanoyl)piperazin-2-one]", "values": [
      {"measurement": "Rat SNL Tactile Allodynia (% Antiallodynia)", "setting": "[1]; 1 hour after drug treatment", "result": 92, "unit": "%"},
      {"measurement": "Rat SNL tactile allodynia, anti-allodynia (statement)", "setting": "[1]; compared to baseline and post-SNL", "result": "significant antiallodynia"},
      {"measurement": "Antiallodynic effects compared to vehicle (FIG. 1)", "setting": "[1]; i.p., 3, 10 and 30 mpk, 60 minutes after drug administration, von Frey", "result": "statistically significant antiallodynic effects"},
      {"measurement": "τ recovery from slow inactivation", "setting": "[2]", "result": 495, "unit": "ms"},
      {"measurement": "Fraction of current recovered at 5.1 s interval", "setting": "[2]", "result": 0.98},
      {"measurement": "Epilepsy 6 Hz (% Protected)", "setting": "[3]; 0.25 hour", "result": 50, "unit": "%"},
      {"measurement": "Epilepsy 6 Hz (% Protected)", "setting": "[3]; 0.5 hour", "result": 88, "unit": "%"},
      {"measurement": "Epilepsy 6 Hz (% Protected)", "setting": "[3]; 1 hour", "result": 13, "unit": "%"},
      {"measurement": "Epilepsy 6 Hz (% Protected)", "setting": "[3]; 2 hours", "result": 25, "unit": "%"},
      {"measurement": "ED50", "setting": "[3]; Mus musculus, 32 mA, mice", "result": 192, "unit": "mg/kg"}
    ]}
  ]
}
